Reference: patent publication US9233166B2, “Supramolecular functionalization of graphitic nanoparticles for drug delivery” (The Board of Trustees of the Leland Stanford Junior …, priority 2007, dated 2016)
Several values for one entry are separate records, joined by “and”; a condition that tells them apart may be missing. Equal values may be shown once. Read-outs that look alike come from different tables or passages of the source.

Experiments:
4T1 tumors = experiment: In vivo treatment of 4T1 murine breast cancer model; set-up: species or system Balb/c mice; conditions: PTX 5 mg/kg every 6 days
Procedure: Female Balb/c mice with implanted 4T1 tumors were treated with the compositions shown in the graphs at the same PTX dose (5 mg/kg, every 6 days). […] No obvious side effects were seen. No mouse in the treatment group died, and no average drop in body weigh was seen (FIG. 19). The tumor growth curves were obtained with 5 mice in each group to get the average tumor volumes and standard deviations.
All animal experiments were performed under a protocol approved by Stanford's Administrative Panel on Laboratory Animal Care (APLAC). The 4T1 tumor models were generated by subcutaneous injection of 2×10^6 cells in 50 μl PBS into the right shoulder of female Balb/c mice. The mice were used for treatment when the tumor volume reached 50-100 mm^3 (˜6 days after tumor inoculation). […] The tumor sizes were measured by a caliper every the other day and calculated as the volume=(tumor length)×(tumor width)^2/2. Relative tumor volumes (FIG. 24) were calculated as V/V0 (V0 was the tumor volume when the treatment was initiated).
The mice were observed daily for clinical symptoms and the tumor volume was measured by a digital caliper every other day.

[1] = tested on: OVCAR-3 ovarian cancer cell line; experiment: MTS cell toxicity assay, OVCAR-3; format: cell-based; conditions: Homo sapiens, 72 h drug incubation
Procedure: (§1) HCT-116 colon cancer cell line, OVCAR-3 ovarian cancer cell line, U87MG glioma cell line and MDA-MB-435 breast cancer cell line were all obtained from American Type Culture Collect (ATCC) and cultured in the recommended conditions. […] After incubation for 72 hours, relative cell viability was measured by standard MTS assay using a CellTiter 96 kit (promega). For NGO-PEG toxicity test, cell medium containing NGO-PEG was changed to fresh medium at 72 h before cell viability test to avoid the dark color of NGO-PEG at high concentrations, which interferes the absorbance reading in MTS assay.

U87MG glioma cell line = experiment: MTS cell toxicity assay, U87MG; format: cell-based; conditions: Homo sapiens, U-87 MG, 72 h drug incubation
Procedure: as §1

[2] = tested on: HCT-116 colon cancer cell line; experiment: MTS cell toxicity assay, HCT-116; format: cell-based; conditions: Homo sapiens
Procedure: as §1

[3] = tested on: MDA-MB-435 breast cancer cell line; experiment: MTS cell toxicity assay, MDA-MB-435; format: cell-based; conditions: Homo sapiens, MDA-MD-435 (breast), 72 h drug incubation
Procedure: as §1

[4] = Water solubility of NGO-PEG-SN38; format: physicochemical; conditions: in terms of SN38
Source text: The existence of aromatic conjugated domains on GO has been shown by NMR previously (Lerf, A.; He, H. Y.; Forster, M.; Klinowski, J., J. Phys. Chem. B, 1998, 102, 4477-4482).

Raji B-cells [5] = experiment: MTS cell viability assay, Raji cells (NGO-PEG-Rituxan/DOX); format: cell-based; conditions: 2 uM and 10 uM DOX, vs free DOX, NGO-PEG/DOX and unconjugated mixture
Procedure: Doxorubicin (DOX) loading onto NGO-PEG (and NGO-PEG-Rituxan) was done by simply mixing 0.5 mM of DOX with the NGO-PEG solution (˜0.2 mg/ml) at pH 8 overnight. Unbound excess DOX was removed by filtration through a 100 kDa filter and repeated rinse. The formed NGO-PEG/DOX complexes were re-suspended and stored at 4° C. Concentration of DOX loaded onto NGO-PEG was measured by the absorbance peak at 490 nm (characteristic of DOX, after subtracting the absorbance of NGO-PEG at that wavelength) with a molar extinction coefficient of 1.05×104 M·cm-1. Both Raji and CEM cells were incubated with free DOX, NGO-PEG/DOX, NGO-PEG/DOX+Rituxan (unconjugated) and NGO-PEG-Ri/DOX at DOX concentrations of 2 μM or 10 μM for 2 hours and washed by PBS twice before transferring into fresh cell medium. After another 48 h incubation, Cell viability was measured by the MTS assay with CellTiter96 kit (Promega).
For DOX loaded onto NGO-PEG-rituximab, we incubated the conjugates with Raji cells at 2 uM and 10 uM DOX concentrations.

[6] = mouse, in vivo, iv
Procedure: Blood circulation was measured by drawing ˜15 μl blood from the tail vein of Raji tumor bearing SCID mice post injection of free DOX or SWNT-DOX. The blood samples were dissolved in a lysis buffer 1 (1% SDS, 1% Triton X-100, 40 mM Tris Acetate, 10 mM EDTA, 10 mM DTT) with brief sonication. Concentration of SWNTs in the blood was measured by a Raman method. […] In brief, DOX was extracted by incubating blood samples in 1 ml of 0.75 M HCl in isopropanol (IPA) at −20° C. overnight. After centrifuge at 24,000 g for 15 minutes, the supernatant was taken for fluorescence measurement using a fluorolog-3 fluorometer. A standard calibration curve with obtained by measuring fluorescence of extraction solutions with known DOX concentrations. DOX loaded on SWNTs can be completely pulled from nanotubes by the extraction solution with ˜100% recover of fluorescence (DOX fluorescence is quenched once loaded on nanotubes).
Blood circulation data were plotted as the blood DOX or SWNT levels (unit: % ID/g) against time p.i. […]
We injected free DOX or SWNT-DOX to Raji tumor bearing SCID mice by intravenous (i.v.) injection via tail veins. Blood was drawn at different time points post injection (p.i.) with DOX concentrations measured by fluorescence spectra.

[7] = tested on: Raji B-cell lymphoma tumors; experiment: In vivo treatment of Raji tumor bearing SCID mice
Procedure: Each SCID mouse was subcutaneously injected with 10 million Raji cells on its back. The treatment was initiated when the tumors reached sizes of ˜400 mm^3 (2-3 weeks after tumor inoculation). The tumor bearing mice were i.v. injected with different formulations of DOX including free DOX, SWNT-DOX and Doxil at 5 mg/kg of normalized DOX dose (or 10 mg/kg for SWNT-DOX) as well as related controls weekly. The tumor sizes were measured by a caliper three times a week and calculated as the volume=(tumor length)×(tumor width)^2/2. Relative tumor volumes were calculated as V/V0 (V0 was the tumor volume when the treatment was initiated). Mice were weighed with the relative body weights normalized to their initial weights.
Raji tumor bearing SCID mice were treated with different formulations of DOX at the weekly by i.v. injection. Plain SWNT and separated injections of plain SWNT plus free DOX were used as the controls. The tumor sizes were normalized to their initial size when the treatment was started (FIG. 26A-D).

[8] = Absorbance of free doxorubicin on heating; format: physicochemical; conditions: after 24 hours
Procedure: The diameter distributions of two types of SWNTs were obtained by AFM topographic height measurements of ˜100 PL-PEG functionalized nanotubes in each material, after depositing them on Si substrates from solutions (FIG. 12). Both Laser PL-SWNT-DOX and Hipco PL-SWNT-DOX (DOX loaded at pH=9) were incubated in PBS and kept at various temperatures (20° C., 40° C., 60° C., 80° C.). Released doxorubicin was removed at different time points and the retained doxorubicin was measured by UV-VIS-NIR to get temperature dependent releasing curves (FIGS. 13A and 13B). […] This was corrected in obtaining our release curves. The half-lives (t1/2) of doxorubicin on PEGylated SWNTs at various temperatures were obtained by fitting the releasing curves to exponential decays. We then used Arrhenius fits of 1/t1/2(T)=A×exp(−EB/kBT) where A is a constant for extracting binding energy EB of DOX on the PEGylated Hipco and laser-ablation nanotubes.

MCF-7 cells = experiment: MTS cell viability assay, MCF-7 cells (SWNT-DOX formulations); format: cell-based; conditions: integrin αvβ3 negative
Procedure: MCF-7 breast cancer cells and U87MG human glioblastoma cancer cells (both from American Type Culture Collection, ATCC) were cultured under standard conditions. Cell viability after various treatments was measured by the MTS assay with CellTiter96 kit (Promega).

Raji B-cells [9] = experiment: NIR photoluminescence imaging of cell binding; format: cell-based; conditions: 4° C., Raji B-cells vs CEM T-cells
Procedure: We covalently conjugated a B-cell specific antibody, Rituxan® rituximab (anti-CD20) to NGO-PEG (NGO-PEG-rituximab) to selectively recognize and bind to B cell lymphoma cells. We incubated B-cells and T-cells in solutions of NGO-PEG-rituximab conjugates at 4° C. to allow the conjugates to interact with the cell surface but block internalization via endocytosis. The cells were then washed and imaged by detecting NIR photoluminescence from 1100 to 2200 nm using an InGaAs detector under 658 nm excitation (laser spot size ˜1 μm). […] This confirmed selective NGO-PEG-Ab binding to B-cells over T cells. […] Nevertheless, the fluorescence quantum yield (QY) in the NIR-IR region appeared low.
Thiolated Rituxan® was conjugated to the amine groups on NGO-PEG via a sulfo-SMCC linker (Pierce Inc.). […] All NIR fluorescence images were taken using an inverted NIR fluorescence microscope in confocal mode. […] The collected light went through a 900 nm long pass filter (Omega) and a 1100 nm long pass filter (ThorLabs) to block reflected excitation and reduce background fluorescence from the sample holder. […] Background fluorescence from the sample holder (˜160 counts) was subtracted to give relevant statistics about the effectiveness of NGO-PEG binding.

[10] = HCT-116 (colon), 72 h drug incubation, read-out: IC50 values

For `CC(=O)O[C@H]1C(=O)[C@@]2(C)[C@H]([C@H](OC(=O)c3ccccc3)[C@]3(O)C[C@H](OC(=O)[C@H](O)[C@@H](NC(=O)c4ccccc4)c4ccccc4)C(C)=C1C3(C)C)[C@]1(OC(C)=O)CO[C@@H]1C[C@@H]2O` [free PTX, paclitaxel], the lung metastasis (4T1 tumors) was “obvious lung metastasis was observed”.
With `CCc1c2c(nc3ccc(OC(=O)N4CCC(N5CCCCC5)CC4)cc13)-c1cc3c(c(=O)n1C2)COC(=O)[C@]3(O)CC` [CPT-11, irinotecan] the IC50 [1] was 3000 nM, the IC50 (U87MG glioma cell line) was over 20000 nM and the IC50 ([2]; HCT-116, 72 h, read-out: 50% growth inhibition concentration (IC50)) was about 10000 nM. For the same compound, the IC50 [2, 10] was 11000 nM and the IC50 [3] was 6000 nM.
In the case of `CCc1c2c(nc3ccc(O)cc13)-c1cc3c(c(=O)n1C2)COC(=O)[C@]3(O)CC` [SN38, 7-ethyl-10-hydroxycamptothecin], the water solubility [4] is reported as “very insoluble in water”, the IC50 [1] is reported as 0.3 nM and the IC50 (U87MG glioma cell line) is reported as 67 nM. It also gave an IC50 [2, 10] of 15 nM and an IC50 [3] of 3 nM.
With NGO-PEG-Rituxan/DOX the “DOX delivery and cell killing” value (Raji B-cells [5]) was “Much enhanced DOX delivery and cell killing”.
For `COc1cccc2c1C(=O)c1c(O)c3c(c(O)c1C2=O)C[C@@](O)(C(=O)CO)C[C@@H]3O[C@H]1C[C@H](N)[C@H](O)[C@H](C)O1` [free DOX, doxorubicin], the DOX circulation half-life [6] was 12.6 min, the “total area under curve (AUC0-∞)” value [6] was 5300 ng·h/mL and the mice death ([7]; 5 mg/kg) was 2 out of 10 and 2. For the same compound, the “tumor growth (folds of initial size)” value ([7]; 5 mg/kg DOX weekly i.v., in two weeks) was 2.90±0.19 folds, the body weight loss ([7]; 5 mg/kg, within two weeks) was about 20% and the “mouse death and body weight drop” value ([7]; 10 mg/kg) was “all the tested mice died within 2 weeks”. The “drop of absorbance on heating” value ([8]; 60° C.) was about 30%, the “drop of absorbance on heating” value ([8]; 80° C.) was about 50% and the “toxicity (concentration dependent survival)” value (MCF-7 cells) was “higher toxicity than both PL-SWNT-DOX and PL-SWNT-RGD-DOX”.
With NGO-PEG-rituximab the “cell surface binding (NIR photoluminescence)” value (Raji B-cells [9]) was “selectively on positive Raji B-cells surface and not on negative CEM T-cells”.
